Reference: patent US8871683B2, “Dicamba herbicide composition” (Nufarm Australia Limited, priority 2008, dated 2014)

Test: Low temperature (cold storage) stability testing, CIPAC Method 39.3 (1999)
Format: physicochemical
Settings: for cold temperature stability at 0° C.: 750 g/L Dicamba (based on acid equivalent); for cold storage / low temperature stability at 0° C.: Dicamba 800 g/L acid equivalent
Method: Compositions described in the Examples were examined by the CIPAC Method 39.3 (1999) the procedure of which is noted below.
Transfer 100±1.0 ml of the formulation to the tube and insert the stopper. Cool to 0±2° C. in the refrigerator (Note 2). If the sample contains a dissolved crystalline pesticide, remove the tube from the refrigerator after 24 hours, take off the stopper, add a small crystal of the pure or technical pesticide (Note 3) and replace the stopper. Replace the tube in the refrigerator and allow it to remain at 0±2° C. for a total period of 7 days (Note 4).
At the end of this time, note the volume and nature of any separated material. If the liquid phase is not homogeneous, note the volume of each layer. If there is any separated material, then allow the tube to reach room temperature over a period of 24 hours (Note 5), invert once and again note the volume and nature of any separated material. • Note 1 A domestic refrigerator is often unsuitable because the on/off cycle may cover a range larger than 4° C. • Note 2 Alternatively a graduated emulsion tube meeting BS 658 class B, type 1 (Crow Receiver) may be used. • Note 3 A crystal from the commercial manufacturing process is preferred. Alternatively a crystal separated from the formulation e.g. by distillation of the solvent may be used. • Note 4 Other temperature-storage period combinations may be specified. • Note 5 Room temperature being defined as 23±2° C. Note any temperature outside this range.
Low temperature stability testing was carried out in accordance with the Standard CIPAC Method 39.3 (1999) and the resulting percentage crystallisation is reported in Table 3.

SMILES | cold temperature stability at 0° C. | cold storage / low temperature stability at 0° C.
CNC.COc1c(Cl)ccc(Cl)c1C(=O)O [DMA salt] | not stable | Neither of the individual DMA or MMA salts were stable
CN.COc1c(Cl)ccc(Cl)c1C(=O)O [MMA salt] | not stable | Neither of the individual DMA or MMA salts were stable
